Target: T1, PIK3CA_C242 (Homo sapiens, UniProt P42336)
T1 construct: endogenous in cells; host or cells: Jurkat cell lysate
Assay: Proteomic TE50 (IA-DTB / TMT mass spectrometry) in Jurkat cell lysate
Assay type: binding
Settings: 1 hour at rt, 7-point dose response
Method: Example 4. Proteomic TE50 In vitro TE50 values for PIK3CA_C242 were obtained by treating 500 μg of cell lysate generated from Jurkat cells with DMSO or compound for 1 hour at rt followed by the addition of 200 μM desthiobiotin polyethyleneoxide iodoacetamide (IA-DTB) in DMSO for one hour at rt. Compounds were serially diluted 1:5 for a total of 7 points in order to generate dose response curves. Samples were then precipitated by the addition of 8× ice cold acetone and incubated at -80° C. for two hours. Protein was then pelleted by centrifugation (4,200 RPM, 45 min, 4° C.). The pelleted material was resuspended in 9M urea, 50 mM ammonium bicarbonate and proteins were reduced and alkylated by the addition of DTT and iodoacetamide (10 and 30 mM, respectively). Following reduction and alkylation, samples were exchanged into 2M urea (Zeba spin desalting plates, Thermo Fisher) and digested with Trypsin. IA-DTB labeled peptides were isolated with streptavidin agarose resin. Enriched peptides were eluted by the addition of 50% acetonitrile (ACN) 0.1% formic acid (FA) and dried in a SpeedVac vacuum concentrator. […] Reactions were quenched by the addition of 6.5 μL of 5% hydroxylamine. Samples were then combined and desalted on a Evolute express ABN plate (Biotage, 600-0010-PX01). Targeted TMT measurements were collected using an Orbitrap Lumos Tribrid Mass Spectrometer (Thermo Scientific) coupled to an UltiMate 3000 Series Rapid Separation LC system and autosampler (Thermo Scientific Dionex). Peptides were eluted onto a custom C18 capillary analytical column (75-μm inner diameter fused silica, packed with Acclaim PepMap C18 resin; Thermo Scientific) using an Acclaim PepMap 100 (Thermo 164535) loading column, and separated at a flow rate of […]. Data were acquired using a specific MS3-based TMT method targeting the peptide containing […], +2 charge state) where MS2 peptide fragmentation is triggered upon detection of the peptide precursor ion. Subsequent MS3 analysis was then performed using pre-selected peptide fragment ions that were isolated for fragmentation using synchronous precursor selection. RAW files were converted to MZXML format and searched with the SEQUEST algorithm using the […] software package. TMT quantitation was performed with a filter requiring at least ten summed signal-to-noise (S/N) for control channels. TE50 values were calculated from 7-point dose response curves created using the reporter ion S/N for each channel.

T1 sequence (P42336 whole entry): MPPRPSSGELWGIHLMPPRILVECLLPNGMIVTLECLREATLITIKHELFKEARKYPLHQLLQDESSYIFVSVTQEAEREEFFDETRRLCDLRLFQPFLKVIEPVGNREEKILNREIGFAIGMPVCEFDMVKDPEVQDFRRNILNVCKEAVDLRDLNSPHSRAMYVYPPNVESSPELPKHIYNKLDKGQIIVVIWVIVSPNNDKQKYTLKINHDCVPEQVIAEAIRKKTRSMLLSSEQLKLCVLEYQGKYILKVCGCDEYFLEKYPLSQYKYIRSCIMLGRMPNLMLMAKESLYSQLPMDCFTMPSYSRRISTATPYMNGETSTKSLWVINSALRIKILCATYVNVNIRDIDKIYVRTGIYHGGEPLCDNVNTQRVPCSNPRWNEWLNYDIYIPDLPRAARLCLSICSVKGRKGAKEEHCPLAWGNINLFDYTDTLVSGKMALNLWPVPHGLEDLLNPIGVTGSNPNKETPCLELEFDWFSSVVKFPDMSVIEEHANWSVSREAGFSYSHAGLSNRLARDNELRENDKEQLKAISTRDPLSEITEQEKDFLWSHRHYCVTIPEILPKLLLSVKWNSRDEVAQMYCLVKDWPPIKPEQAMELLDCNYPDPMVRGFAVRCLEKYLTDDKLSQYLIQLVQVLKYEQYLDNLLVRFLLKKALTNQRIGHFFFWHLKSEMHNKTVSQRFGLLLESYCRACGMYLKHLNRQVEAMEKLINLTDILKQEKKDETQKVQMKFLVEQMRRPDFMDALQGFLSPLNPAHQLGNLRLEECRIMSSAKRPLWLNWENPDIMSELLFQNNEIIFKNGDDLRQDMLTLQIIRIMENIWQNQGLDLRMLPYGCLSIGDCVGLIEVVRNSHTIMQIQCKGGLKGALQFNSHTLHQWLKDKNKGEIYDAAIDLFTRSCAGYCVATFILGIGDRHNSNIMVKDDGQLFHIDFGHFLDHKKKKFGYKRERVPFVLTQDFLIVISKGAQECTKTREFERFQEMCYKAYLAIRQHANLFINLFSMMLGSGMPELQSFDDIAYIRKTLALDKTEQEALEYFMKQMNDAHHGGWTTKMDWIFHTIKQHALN
T1 sequence (P27986 whole entry partner): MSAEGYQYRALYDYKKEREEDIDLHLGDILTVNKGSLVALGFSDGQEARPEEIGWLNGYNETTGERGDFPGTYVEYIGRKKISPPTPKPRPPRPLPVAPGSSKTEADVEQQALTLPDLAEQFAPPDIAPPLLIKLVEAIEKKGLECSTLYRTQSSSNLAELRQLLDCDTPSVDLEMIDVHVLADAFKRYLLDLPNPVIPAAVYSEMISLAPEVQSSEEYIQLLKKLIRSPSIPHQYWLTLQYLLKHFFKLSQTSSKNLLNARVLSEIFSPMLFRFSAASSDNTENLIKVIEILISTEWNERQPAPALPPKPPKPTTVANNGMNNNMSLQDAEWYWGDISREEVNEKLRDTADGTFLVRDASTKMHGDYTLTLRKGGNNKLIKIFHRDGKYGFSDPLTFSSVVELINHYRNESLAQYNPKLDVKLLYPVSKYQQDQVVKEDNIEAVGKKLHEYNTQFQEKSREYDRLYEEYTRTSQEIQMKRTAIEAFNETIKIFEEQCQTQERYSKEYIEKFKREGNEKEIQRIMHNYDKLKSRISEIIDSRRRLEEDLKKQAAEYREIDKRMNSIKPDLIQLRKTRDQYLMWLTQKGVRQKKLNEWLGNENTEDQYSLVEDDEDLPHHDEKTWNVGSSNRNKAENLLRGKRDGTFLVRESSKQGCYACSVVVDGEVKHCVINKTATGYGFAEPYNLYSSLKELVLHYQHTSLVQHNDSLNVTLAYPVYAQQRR

SMILES	IC50 [nM]
C[C@H](/C=C\S(C)(=O)=O)NC(=O)C1(F)CCN(S(=O)(=O)c2ccc(C3CN(C(=O)OC(C)(C)C)C3)cc2-c2ccccc2Cl)CC1 [Compound 99, tert-butyl (R,Z)-3-(2′-chloro-6-((4-fluoro-4-((4-(methylsulfonyl)but-3-en-2-yl)carbamoyl)piperidin-1-yl)sulfonyl)-[1,1′-biphenyl]-3-yl)azetidine-1-carboxylate]	830
C[C@H](/C=C\S(C)(=O)=O)NC(=O)C1(F)CCN(S(=O)(=O)c2ccc(OC3CC3)cc2-c2ccccc2Cl)CC1 [Compound 101, (R,Z)-1-((2′-chloro-5-cyclopropoxy-[1,1′-biphenyl]-2-yl)sulfonyl)-4-fluoro-N-(4-(methylsulfonyl)but-3-en-2-yl)piperidine-4-carboxamide]	860
Cc1ccccc1-c1cc(OC(C)C)ccc1S(=O)(=O)N1CCC(F)(C(=O)N[C@H](C)/C=C\S(C)(=O)=O)CC1 [Compound 103, (R,Z)-4-fluoro-1-((5-isopropoxy-2′-methyl-[1,1′-biphenyl]-2-yl)sulfonyl)-N-(4-(methylsulfonyl)but-3-en-2-yl)piperidine-4-carboxamide]	830
C[C@H](/C=C\S(C)(=O)=O)NC(=O)C1(F)CCN(S(=O)(=O)c2ccc(O)cc2-c2ccccc2Cl)CC1 [Compound 104, (R,Z)-1-((2′-chloro-5-hydroxy-[1,1′-biphenyl]-2-yl)sulfonyl)-4-fluoro-N-(4-(methylsulfonyl)but-3-en-2-yl)piperidine-4-carboxamide]	620
CC(C)Oc1ccc(S(=O)(=O)N2CCC(F)(C(=O)N[C@H](C)/C=C\S(C)(=O)=O)CC2)c(-c2ccccc2Cl)c1 [Compound 105, (R,Z)-1-((2′-chloro-5-isopropoxy-[1,1′-biphenyl]-2-yl)sulfonyl)-4-fluoro-N-(4-(methylsulfonyl)but-3-en-2-yl)piperidine-4-carboxamide]	780
COc1cc(-c2ccccc2)c(S(=O)(=O)N2CCC(F)(C(=O)NC/C=C/S(C)(=O)=O)CC2)cn1 [Compound 191, (E)-4-fluoro-1-((6-methoxy-4-phenylpyridin-3-yl)sulfonyl)-N-(3-(methylsulfonyl)allyl)piperidine-4-carboxamide]	950
COc1cccc(-c2cc(Cl)cnc2S(=O)(=O)N2CCC(F)(C(=O)N[C@@H](C)/C=C\S(C)(=O)=O)CC2)c1 [Compound 200, (S,Z)-1-((5-chloro-3-(3-methoxyphenyl)pyridin-2-yl)sulfonyl)-4-fluoro-N-(4-(methylsulfonyl)but-3-en-2-yl)piperidine-4-carboxamide]	788
COc1cccc(-c2ccccc2S(=O)(=O)N2CCC(F)(C(=O)NC/C=C/S(=O)(=O)C3CCN(C)CC3)CC2)c1 [Compound 228, (E)-4-fluoro-1-((3′-methoxy-[1,1′-biphenyl]-2-yl)sulfonyl)-N-(3-((1-methylpiperidin-4-yl)sulfonyl)allyl)piperidine-4-carboxamide]	690
C[C@@H](/C=C\S(C)(=O)=O)NC(=O)C1(F)CCN(S(=O)(=O)c2ccc(Cl)cc2-c2cccc(Oc3ccccc3)c2)CC1 [Compound 267, (S,Z)-1-((5-chloro-3′-phenoxy-[1,1′-biphenyl]-2-yl)sulfonyl)-4-fluoro-N-(4-(methylsulfonyl)but-3-en-2-yl)piperidine-4-carboxamide]	703
C[C@H](/C=C\S(C)(=O)=O)NC(=O)C1(F)CCN(S(=O)(=O)c2cnc(O)cc2-c2ccccc2Cl)CC1 [Compound 276, (R,Z)-1-((4-(2-chlorophenyl)-6-hydroxypyridin-3-yl)sulfonyl)-4-fluoro-N-(4-(methylsulfonyl)but-3-en-2-yl)piperidine-4-carboxamide]	570

These reach a lower IC50. Values come first.

IC50 [nM]	SMILES
550	COc1cccc(-c2cc(Cl)ncc2S(=O)(=O)N2CCC(F)(C(=O)N[C@@H](C)/C=C\S(C)(=O)=O)CC2)c1 [Compound 270, (S,Z)-1-((6-chloro-4-(3-methoxyphenyl)pyridin-3-yl)sulfonyl)-4-fluoro-N-(4-(methylsulfonyl)but-3-en-2-yl)piperidine-4-carboxamide]
520	C[C@H](/C=C\S(C)(=O)=O)NC(=O)C1(F)CCN(S(=O)(=O)c2ccc(C3CCC3)cc2-c2ccccc2Cl)CC1 [Compound 98, (R,Z)-1-((2′-chloro-5-cyclobutyl-[1,1′-biphenyl]-2-yl)sulfonyl)-4-fluoro-N-(4-(methylsulfonyl)but-3-en-2-yl)piperidine-4-carboxamide]
430	C[C@H](/C=C\S(C)(=O)=O)NC(=O)C1(F)CCN(S(=O)(=O)c2ccc(N3CCN(C(=O)OC(C)(C)C)CC3)cc2-c2ccccc2Cl)CC1 [Compound 118, tert-butyl (R,Z)-4-(2′-chloro-6-((4-fluoro-4-((4-(methylsulfonyl)but-3-en-2-yl)carbamoyl)piperidin-1-yl)sulfonyl)-[1,1′-biphenyl]-3-yl)piperazine-1-carboxylate]
410	COc1cccc(-c2cc(N(C)C)ccc2S(=O)(=O)N2CCC(F)(C(=O)NC/C=C/S(C)(=O)=O)CC2)c1 [Compound 96, (E)-1-((5-(dimethylamino)-3′-methoxy-[1,1′-biphenyl]-2-yl)sulfonyl)-4-fluoro-N-(3-(methylsulfonyl)allyl)piperidine-4-carboxamide]
370	CN(C)c1ccc(S(=O)(=O)N2CCC(F)(C(=O)NC/C=C/C#N)CC2)c(-c2ccccc2Cl)c1 [Compound 97, (E)-1-((2′-chloro-5-(dimethylamino)-[1,1′-biphenyl]-2-yl)sulfonyl)-N-(3-cyanoallyl)-4-fluoropiperidine-4-carboxamide]
356	C[C@@H](/C=C\S(C)(=O)=O)NC(=O)C1(F)CCN(S(=O)(=O)c2ccc(Cl)cc2-c2cccc(OCc3ccccc3)c2)CC1 [Compound 268, (S,Z)-1-((3′-(benzyloxy)-5-chloro-[1,1′-biphenyl]-2-yl)sulfonyl)-4-fluoro-N-(4-(methylsulfonyl)but-3-en-2-yl)piperidine-4-carboxamide]
270	COc1cc(-c2ccccc2Cl)c(S(=O)(=O)N2CCC(F)(C(=O)NC/C=C\C#N)CC2)cn1 [Compound 194, (Z)-1-((4-(2-chlorophenyl)-6-methoxypyridin-3-yl)sulfonyl)-N-(3-cyanoallyl)-4-fluoropiperidine-4-carboxamide]
263	COc1cc(-c2ccccc2C)c(S(=O)(=O)N2CCC(F)(C(=O)NC/C=C/S(C)(=O)=O)CC2)cn1 [Compound 189, (E)-4-fluoro-1-((6-methoxy-4-(o-tolyl)pyridin-3-yl)sulfonyl)-N-(3-(methylsulfonyl)allyl)piperidine-4-carboxamide]
250	Cc1ccccc1-c1cc(N2CCCC2)ccc1S(=O)(=O)N1CCC(F)(C(=O)N[C@H](C)/C=C\S(C)(=O)=O)CC1 [Compound 120, (R,Z)-4-fluoro-1-((2′-methyl-5-(pyrrolidin-1-yl)-[1,1′-biphenyl]-2-yl)sulfonyl)-N-(4-(methylsulfonyl)but-3-en-2-yl)piperidine-4-carboxamide]
209	CC#Cc1ccc(S(=O)(=O)N2CCC(F)(C(=O)N[C@H](C)/C=C\S(C)(=O)=O)CC2)c(-c2ccccc2Cl)c1 [Compound 131, (R,Z)-1-((2′-chloro-5-(prop-1-yn-1-yl)-[1,1′-biphenyl]-2-yl)sulfonyl)-4-fluoro-N-(4-(methylsulfonyl)but-3-en-2-yl)piperidine-4-carboxamide]
189	COc1cc(-c2ccccc2Cl)c(S(=O)(=O)N2CCC(F)(C(=O)NC/C=C/S(C)(=O)=O)CC2)cn1 [Compound 188, (E)-1-((4-(2-chlorophenyl)-6-methoxypyridin-3-yl)sulfonyl)-4-fluoro-N-(3-(methylsulfonyl)allyl)piperidine-4-carboxamide]
170	CCc1ccc(S(=O)(=O)N2CCC(F)(C(=O)N[C@H](C)/C=C\S(C)(=O)=O)CC2)c(-c2ccccc2C)c1 [Compound 113, (R,Z)-1-((5-ethyl-2′-methyl-[1,1′-biphenyl]-2-yl)sulfonyl)-4-fluoro-N-(4-(methylsulfonyl)but-3-en-2-yl)piperidine-4-carboxamide]
140	COc1ccc(S(=O)(=O)N2CCC(F)(C(=O)N3CC(/C=C\S(C)(=O)=O)C3)CC2)c(-c2ccccc2Cl)c1 [Compound 230, (Z)-(1-((2′-chloro-5-methoxy-[1,1′-biphenyl]-2-yl)sulfonyl)-4-fluoropiperidin-4-yl)(3-(2-(methylsulfonyl)vinyl)azetidin-1-yl)methanone]
120	C=Cc1ccc(S(=O)(=O)N2CCC(F)(C(=O)N[C@H](C)/C=C\S(C)(=O)=O)CC2)c(-c2ccccc2C)c1 [Compound 108, (R,Z)-4-fluoro-1-((2′-methyl-5-vinyl-[1,1′-biphenyl]-2-yl)sulfonyl)-N-(4-(methylsulfonyl)but-3-en-2-yl)piperidine-4-carboxamide]

Source: US20250026721A1, “COMPOUNDS AND METHODS FOR MODULATING RAS-PI3K” (Vividion Therapeutics, Inc., priority 2023, published 2025)
